According to EP0194158A2, “Anti-nicotine and anti-cotinine antibodies (monoclonal and other), and their uses in nicotine and cotinine assays” (Baylor College of Medicine, priority 1985, dated 1986):
Like-named read-outs stand apart in the source and are kept apart here.

Columns and labels:
[1] = target: monoclonal antibody Anti-nicotine 402C10; assay: sandwich ELISA, inhibition of binding of monoclonal antibody to solid phase hapten (specificity); design: species or system mouse
Description: (§1) Control values were less than 0.05 absorbance unit.

[2] = target: monoclonal antibody Anti-cotinine 305E5; assay: as above; design: species or system mouse
Description: as §1

[3] = target: monoclonal antibody Anti-cotinine 309G5, isotype IgG1k; assay: binding affinity constant K (method of R. Muller); design: species or system mouse; conditions: value is K multiplied by 10^-8
[4] = tested on: Rabbit Antibody 495D (anti-cotinine); assay: Fluorescent (fluorometric) ELISA; assay type: binding; conditions: nanograms of cotinine inhibitor required for 50% inhibition
Description: (§2) b. Fluorometric ELISA: The wells of polystyrene microtiter plates (Immulon 2; Dynatech Laboratories, Alexandria, VA) were coated respectively with 0.004 and 0.016 ug of polylysine-cotinine and polylysine-nicotine conjugate (0.1 ml) in 3 mM phosphate buffer, and incubated overnight at 4°C, pH 6.3. After aspiration, the wells were blocked with 0.2 ml casein buffer (0.01M Tris-buffered saline, pH 7.6., containing 0.01M EDTA and 0.2% vitamin-free casein (Nutritional Biochemicals, Cleveland, OH)) for 1 hour at room temperature, and then washed once with 0.2 ml of the same buffer and again aspirated. Assays were performed in 0.1 ml total volume per well using 0.050 ml diluted ascites (0.025 ml sample), and 0.025 ml nicotine or cotinine. Plates were incubated overnight at 4°C, washed three times with 0.2 ml casein buffer and then 0.1 ml biotin conjugated sheep anti-mouse IgG (Cooper Biomedical, Malvern, PA) diluted 1/250 with casein buffer was added. After incubation for 3 hours at room temperature, the plates were washed three times with 0.2 ml casein buffer, and streptavidin (0.5 ug) was added to each well, incubated for 1 hour at room temperature and washed as before. 0.1 ml of biotinylated alkaline phosphatase (Zymed, South San Francisco, CA) diluted 1/200 was added to each well, the plates were incubated for 1 hour at room temperature, washed with 0.2 ml PBS containing 0.05% Tween-20, and then washed three times with 0.2 ml of 0.01 M Tris-buffered saline, pH 7.6. 0.1 ml of substrate was added containing 2.5 mM 4-methylumbelliferyl phosphate dissolved in buffer containing diethanolamine (20% v/v) pH 10, 1 mM MgClz, and 9 mM levamisol. Fluorescence was measured with a Microfluor fluorometer (Dynatech Laboratories) at an excitation wavelength of 365 nm and emission wavelength of 450 nm. The plates were read right after substrate was added and again at 30 minute intervals. (Plates should be stored in the dark).

[5] = tested on: Rabbit Antibody 113D (anti-cotinine); assay: Fluorescent (fluorometric) ELISA; assay type: binding; conditions: nanograms of cotinine inhibitor required for 50% inhibition
Description: as §2

[6] = tested on: Rabbit Antibody 494D (anti-cotinine); assay: Fluorescent (fluorometric) ELISA; assay type: binding; conditions: nanograms of cotinine inhibitor required for 50% inhibition
Description: as §2

[7] = target: monoclonal antibody Anti-cotinine 206F8, isotype IgAlambda; assay: binding affinity constant K (method of R. Muller); design: species or system mouse; conditions: value is K multiplied by 10^-8
[8] = tested on: Monoclonal Antibody 206F8 (anti-cotinine); assay: Fluorescent (fluorometric) ELISA; assay type: binding, mouse; conditions: nanograms of cotinine inhibitor required for 50% inhibition
Description: as §2

[9] = tested on: Monoclonal Antibody 308C11 (anti-cotinine); assay: Fluorescent (fluorometric) ELISA; assay type: binding, mouse; conditions: nanograms of cotinine inhibitor required for 50% inhibition
Description: as §2

[10] = tested on: Monoclonal Antibody 309G5 (anti-cotinine); assay: Fluorescent (fluorometric) ELISA; assay type: binding, mouse; conditions: nanograms of cotinine inhibitor required for 50% inhibition
Description: as §2

[11] = tested on: Monoclonal Antibody 305E5 (anti-cotinine); assay: Fluorescent (fluorometric) ELISA; assay type: binding, mouse; conditions: nanograms of cotinine inhibitor required for 50% inhibition
Description: as §2

[12] = target: monoclonal antibody Anti-cotinine 308C11, isotype IgG1k; assay: binding affinity constant K (method of R. Muller); design: species or system mouse; conditions: value is K multiplied by 10^-8
[13] = tested on: the 6 cotinine antisera (rabbit); assay: ELISA with rabbit antisera, no second antibody; assay type: binding; conditions: range over the 6 antisera
Description: In these assays, no second antibody is required, because all rabbit IgG binds HRP-SpA (J.W. Goding, 20 J. Immunol. Methods 241 (1978)).

[14] = tested on: Rabbit Antibody 481D (anti-cotinine); assay: Fluorescent (fluorometric) ELISA; assay type: binding; conditions: nanograms of cotinine inhibitor required for 50% inhibition
[15] = tested on: Rabbit Antibody 482D (anti-cotinine); assay: Fluorescent (fluorometric) ELISA; assay type: binding; conditions: nanograms of cotinine inhibitor required for 50% inhibition
[16] = target: monoclonal antibody Anti-cotinine 305E5, isotype IgG2bk; assay: binding affinity constant K (method of R. Muller); design: species or system mouse; conditions: value is K multiplied by 10^-8
[17] = tested on: the 4 anticotinine antibodies (McAb); assay: sandwich ELISA, inhibition by homologous hapten, all anti-cotinine McAb; assay type: binding, mouse; conditions: range over the 4 antibodies; each McAb diluted to give A490 1.0-1.2 without inhibitor
Description: as §1
Only 0.02 ng cotinine inhibited by 15%.

[18] = target: monoclonal antibody Anti-nicotine 304A4, isotype IgG1k; conditions: read-out: K; binding affinity constant; value is K multiplied by 10^-8
Description: (§3) The binding affinity constant (K; an indication of binding strength), was measured by the method described in R. Muller, 34 J. Immunol. Methods 345 (i980). The concentration of antibody in the ascites fluid was also measured by a method described in R. Muller, id.

[19] = target: monoclonal antibody Anti-nicotine 302A12, isotype IgG1k; conditions: read-out: K; binding affinity constant; value is K multiplied by 10^-8
Description: as §3

[20] = target: monoclonal antibody Anti-nicotine 303C10, isotype IgG2k; conditions: read-out: K; binding affinity constant; value is K multiplied by 10^-8
Description: as §3

[21] = target: monoclonal antibody Anti-nicotine 301C4, isotype IgG1lambda; conditions: read-out: K; binding affinity constant; value is K multiplied by 10^-8
Description: as §3

[22] = target: monoclonal antibody Anti-nicotine 304A7, isotype IgG1lambda; conditions: read-out: K; binding affinity constant; value is K multiplied by 10^-8
Description: as §3

[23] = target: monoclonal antibody Anti-nicotine 402C10, isotype IgG2ak; conditions: read-out: K; binding affinity constant; value is K multiplied by 10^-8
Description: as §3

[24] = target: monoclonal antibody Anti-nicotine 302G3, isotype IgG1lambda; conditions: read-out: K; binding affinity constant; value is K multiplied by 10^-8
Description: as §3

[25] = target: monoclonal antibody Anti-nicotine 303C5, isotype IgG1lambda; conditions: read-out: K; binding affinity constant; value is K multiplied by 10^-8
Description: as §3

[26] = target: monoclonal antibody Anti-nicotine 203G3, isotype IgMlambda; conditions: read-out: K; binding affinity constant; value is K multiplied by 10^-8
Description: as §3

[27] = tested on: the 9 antinicotine antibodies (McAb)
Description: The specificity of two of the antibodies (anti-nicotine 402Cl0 and anti-cotinine 305E5) was analyzed,. using a modification of the sandwich ELISA technique, which technique is described in detail below. In essence, specificity was determined by discerning how much structually related substance need be added to inhibit binding of monoclonal antibody to solid phase hapten by 50%. The assays were carried out in wells coated with 0.012 ug nicotine- or cotinine-polylysine conjugate, and with anti-nicotine and anti-cotinine diluted 1:729,000.
The modification involved use of 0.01 m1 of serially diluted standard nicotine or cotinine, (known amounts of inhibitors to assess antibody specificity), or test samples (eg. saliva) added to 0.04 ml casein buffer before its incubation with monoclonal antibodies. Maximum A490 values (i.e., maximum antibody binding) were determined using casein buffer (0.01 ml) in place of inhibitor. […] Control values were less than 0.05 absorbance unit. […]
After the preparation, to determine McAb binding, 0.05 ml diluted ascites fluid was added to 0.05 ml casein buffer and the plates were incubated overnight at 4°C. […] Color development was stopped by addition of 0.05 ml 4N sulfuric acid, and the A490 nm values were measured in the ELISA reader.

[28] = tested on: single rabbit antinicotine serum
Description: Also developed were similar ELISAs using rabbit antisera, that being prepared as described in J.J. Langone et al., Biochemistry (1973) supra; J.J. Langone, H. Van Vunakis, Methods in Enzymology (1982) supra. In these assays, no second antibody is required, because all rabbit IgG binds HRP-SpA (J.W. Goding, 20 J. Immunol. Methods 241 (1978)).

[29] = wells coated with 0.012 ug nicotine-polylysine conjugate, anti-nicotine diluted 1:729,000, total volume 0.1 ml
[30] = wells coated with 0.012 ug cotinine-polylysine conjugate, anti-cotinine diluted 1:729,000, total volume 0.1 ml
[31] = at 700 ng, the highest amount printed in the cell

## c1cncc([C@@H]2CCCCN2)c1 [anabasine]
[1]; [29]
  Nanograms required for 50% inhibition: 14.3 Nanograms
[2]; [30]
  Nanograms required for 50% inhibition: 170 Nanograms

## C[N+]1([O-])CCCC1c1cccnc1 (stereo not drawn) [nicotine N'-oxide]
[1]; [29]
  Nanograms required for 50% inhibition: 81.0 Nanograms
[2]; [30]
  Nanograms required for 50% inhibition: 490 Nanograms

## CN1C(=O)CC[C@H]1c1cccnc1 [(S)-(-)-cotinine]
[3]
  Kd: 1.32 nM
[4]
  I 50%: 0.310 nanograms
[5]
  I 50%: 0.045 nanograms
[6]
  I 50%: 0.075 nanograms
[7]
  Kd: 5.41 nM
[8]
  I 50%: 0.255 nanograms
[9]
  I 50%: 0.033 nanograms
[10]
  I 50%: 0.015 nanograms
[11]
  I 50%: 0.024 nanograms
[12]
  Kd: 3.21 nM
[1]; [29]
  Nanograms required for 50% inhibition: 1,000 Nanograms
[2]; 0.02 ng cotinine
  inhibition: 15%
[2]; [30]
  Nanograms required for 50% inhibition: 0.12 Nanograms
[13]
  50% inhibition values: 0.3 to 1.2 ng
[14]
  I 50%: 0.215 nanograms
[15]
  I 50%: 0.025 nanograms
[16]
  Kd: 1.76 nM
[17]
  50% inhibition: 0.038 to 0.12 ng

## O=C(O)CCC(=O)c1cccnc1 [gamma-(3-pyridyl-gamma-oxobutyric acid]
[1]; [29]
  Nanograms required for 50% inhibition: 1,920 Nanograms
[2]; [30]
  Nanograms required for 50% inhibition: 410 Nanograms

## c1cncc([C@@H]2CCCN2)c1 [(-)-nornicotine]
[1]
  Nanograms required for 50% inhibition: 95.0 Nanograms
[2]
  Nanograms required for 50% inhibition: 50.0 Nanograms

## c1cncc(C2=NCCC2)c1 [myosmine]
[1]; [31]
  inhibition (per cent in brackets): 13%
[1]; [29]
  Nanograms required for 50% inhibition: > 700 Nanograms
[2]; [30]
  Nanograms required for 50% inhibition: 220 Nanograms

## CN1CCCC1c1ccc(N)nc1 (stereo not drawn) [6-aminonicotine]
[1]; [29]
  Nanograms required for 50% inhibition: 35.0 Nanograms
[2]; [30]
  Nanograms required for 50% inhibition: 8,500 Nanograms

## O=NN1CCCC1c1cccnc1 (stereo not drawn) [N'-nitrosonornicotine]
[1]; [31]
  inhibition (per cent in brackets): 31%
[1]; [29]
  Nanograms required for 50% inhibition: > 700 Nanograms
[2]; [30]
  Nanograms required for 50% inhibition: 6.5 Nanograms

## (-)-cotinine N'-oxide
[1]; at the 1,000 ng level
  inhibition (per cent in brackets): 0%
[1]; [29]
  Nanograms required for 50% inhibition: > 1,000 Nanograms
[2]; [30]
  Nanograms required for 50% inhibition: 4.6 Nanograms

## O=C1CCC(c2cccnc2)N1 (stereo not drawn) [desmethylcotinine]
[1]; [29]
  Nanograms required for 50% inhibition: 10,000 Nanograms
[2]; ratio to (S)-(-)-cotinine
  fold more required for 50% inhibition compared to homologous hapten: 13 fold
[2]; [30]
  Nanograms required for 50% inhibition: 1.6 Nanograms

## CN1CCC[C@H]1c1cccnc1 [(S)-(-)-nicotine]
[18]
  Kd: 7.52 nM
[19]
  Kd: 8 nM
[20]
  Kd: 18.5 nM
[21]
  Kd: 9.71 nM
[22]
  Kd: 11.4 nM
[23]
  Kd: 8.26 nM
[24]
  Kd: 6.17 nM
[25]
  Kd: 7.14 nM
[26]
  Kd: 20.8 nM
[27]; range over all 9 anti-nicotine McAb, versus R-(+)-nicotine
  Stereospecificity for (S)-(-)-nicotine: 5-45 fold
[27]; range over the 9 antibodies, each McAb diluted to give A490 1.0-1.2 without inhibitor
  50% inhibition: 0.091 to 0.51 ng
[28]
  required for 50% inhibition: 3.9 ng
[1]
  inhibition: 15%

## CN1CCC[C@@H]1c1cccnc1 [(R)-(+)-nicotine]
[1]
  Nanograms required for 50% inhibition: 6.4 Nanograms
  times more required for 50% inhibition than (S)-(-)-nicotine: Twenty-five
[2]
  Nanograms required for 50% inhibition: 320 Nanograms

## CCN1CCCC1c1cccnc1 (stereo not drawn) [N-ethylnornicotine]
[1]; [29]
  Nanograms required for 50% inhibition: 5.4 Nanograms
[2]; at the 1,000 ng level
  inhibition (per cent in brackets): 44%
[2]; [30]
  Nanograms required for 50% inhibition: > 1,000 Nanograms

## CN1CCCC1CCO (stereo not drawn) [1-methyl-2-pyrrolidine ethanol]
[1]; [29]
  Nanograms required for 50% inhibition: 5.4 Nanograms
[2]; [30]
  Nanograms required for 50% inhibition: 6,950 Nanograms

## CN1CCCC1c1cccnc1N (stereo not drawn) [2-aminonicotine]
[1]; [29]
  Nanograms required for 50% inhibition: 14.0 Nanograms
[2]; [30]
  Nanograms required for 50% inhibition: 1,700 Nanograms

## CN1CCCC1c1ccc(O)nc1 (stereo not drawn) [6-hydroxynicotine]
[1]; ratio to the naturally occurring isomer
  times more required for 50% inhibition than (S)-(-)-nicotine: 5 fold
[1]; [29]
  Nanograms required for 50% inhibition: 1.3 Nanograms
[2]; [30]
  Nanograms required for 50% inhibition: 330 Nanograms
